Test results from patent publication US8993624B2, “Method of preventing and treating inflammatory diseases and disorders with abscisic acid” (Virginia Tech Intellectual Properties, Inc., priority 2010, dated 2015).

Test system: PPAR γ
Assay type: cell-based

Structure (SMILES): CC1=CC(=O)CC(C)(C)C1(O)/C=C/C(C)=C\C(=O)O (single isomer, unassigned; (-)) [(−) ABA]
- concentration inducing maximal PPAR γ activation (1.25-10 μM tested, 20 hours): 2.5 µM
- PPAR γ activation (relative luciferase activity) (RAW 264.7, 20 hours): activated PPAR γ to a similar degree
